Experimental data reported in US8796268B2, “Heteroaryls and uses thereof” (Millennium Pharmaceuticals, Inc., priority 2010, dated 2014).

Key:
Type in all cases: biochemical
Human PI3K delta = molecular target: T1, Human PI3K delta (Homo sapiens, UniProt O00329); assay: Human PI3K delta enzyme assay (HTRF); conditions: concentration not given, b1389 states 1.0 μM for PI3K δ and γ; for inhibition at 1 µM: read-out: p110 delta Percent Inhibition
T1 construct: His (N); host or cells: SF9 insect cells (baculovirus)
How it was run: (§1)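 Compounds were mixed with 25 uM ATP, then with 3.5 uM di-C8 PI(4,5)P2 and His-tagged PI3K isoform (β 5.25 nM, δ 0.75 nM, γ 5 nM) at pH 7.00. After 30 min at room temperature, EDTA stopped the reaction and PIP3 was measured by HTRF over 1 h.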

Human PI3K beta = molecular target: T2, Human PI3K beta (Homo sapiens, UniProt P42338); assay: Human PI3K beta enzyme assay (HTRF); conditions: concentration not given, b1387 states 1.1 μM for PI3K α and β; for inhibition at 1.1 µM: read-out: p110 beta Percent Inhibition
T2 construct: His (N); host or cells: SF9 insect cells (baculovirus)
How it was run: as §1

Human PI3K alpha = molecular target: T3, Human PI3K alpha (Homo sapiens, UniProt P42336); assay: Human PI3K alpha enzyme assay (HTRF); conditions: concentration not given, b1387 states 1.1 μM for PI3K α and β; for inhibition at 1.1 µM: read-out: p110 alpha Percent Inhibition
T3 construct: His (N); host or cells: SF9 insect cells (baculovirus)

Human PI3K gamma = molecular target: T4, Human PI3K gamma (Homo sapiens, UniProt P48736); assay: Human PI3K gamma enzyme assay (HTRF); conditions: concentration not given, b1389 states 1.0 μM for PI3K δ and γ; for inhibition at 1 µM: read-out: p110 gamma Percent Inhibition
T4 construct: His (N); host or cells: SF9 insect cells (baculovirus)
How it was run: as §1

T1 sequence (O00329 whole entry): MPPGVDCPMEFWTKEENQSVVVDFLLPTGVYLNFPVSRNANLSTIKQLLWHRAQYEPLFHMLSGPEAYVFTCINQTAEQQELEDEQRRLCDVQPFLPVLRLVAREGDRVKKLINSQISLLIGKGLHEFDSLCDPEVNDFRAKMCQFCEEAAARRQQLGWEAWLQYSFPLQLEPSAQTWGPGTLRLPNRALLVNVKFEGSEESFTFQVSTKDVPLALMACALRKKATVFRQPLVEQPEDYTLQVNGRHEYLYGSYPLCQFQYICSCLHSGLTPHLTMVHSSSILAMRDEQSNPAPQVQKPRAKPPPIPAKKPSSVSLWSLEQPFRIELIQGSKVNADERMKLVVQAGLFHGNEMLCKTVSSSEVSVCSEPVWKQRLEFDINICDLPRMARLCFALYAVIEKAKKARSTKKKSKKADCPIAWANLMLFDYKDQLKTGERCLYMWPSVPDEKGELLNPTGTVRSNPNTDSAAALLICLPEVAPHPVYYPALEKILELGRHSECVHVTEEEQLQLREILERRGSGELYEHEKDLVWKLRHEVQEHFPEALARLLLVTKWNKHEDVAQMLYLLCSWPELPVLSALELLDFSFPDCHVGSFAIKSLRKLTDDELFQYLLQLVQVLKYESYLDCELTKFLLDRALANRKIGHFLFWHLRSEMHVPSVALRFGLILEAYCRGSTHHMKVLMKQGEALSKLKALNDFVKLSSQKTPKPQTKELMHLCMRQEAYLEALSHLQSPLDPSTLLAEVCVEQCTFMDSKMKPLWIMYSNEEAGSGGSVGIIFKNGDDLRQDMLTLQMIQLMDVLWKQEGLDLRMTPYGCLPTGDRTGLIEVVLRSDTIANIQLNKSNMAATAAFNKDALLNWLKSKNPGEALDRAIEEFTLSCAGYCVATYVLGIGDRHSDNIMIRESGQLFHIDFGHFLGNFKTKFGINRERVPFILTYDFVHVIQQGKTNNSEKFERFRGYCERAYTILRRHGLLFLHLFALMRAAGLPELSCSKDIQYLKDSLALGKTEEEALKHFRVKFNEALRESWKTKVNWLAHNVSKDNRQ
T1 sequence (P27986 whole entry partner): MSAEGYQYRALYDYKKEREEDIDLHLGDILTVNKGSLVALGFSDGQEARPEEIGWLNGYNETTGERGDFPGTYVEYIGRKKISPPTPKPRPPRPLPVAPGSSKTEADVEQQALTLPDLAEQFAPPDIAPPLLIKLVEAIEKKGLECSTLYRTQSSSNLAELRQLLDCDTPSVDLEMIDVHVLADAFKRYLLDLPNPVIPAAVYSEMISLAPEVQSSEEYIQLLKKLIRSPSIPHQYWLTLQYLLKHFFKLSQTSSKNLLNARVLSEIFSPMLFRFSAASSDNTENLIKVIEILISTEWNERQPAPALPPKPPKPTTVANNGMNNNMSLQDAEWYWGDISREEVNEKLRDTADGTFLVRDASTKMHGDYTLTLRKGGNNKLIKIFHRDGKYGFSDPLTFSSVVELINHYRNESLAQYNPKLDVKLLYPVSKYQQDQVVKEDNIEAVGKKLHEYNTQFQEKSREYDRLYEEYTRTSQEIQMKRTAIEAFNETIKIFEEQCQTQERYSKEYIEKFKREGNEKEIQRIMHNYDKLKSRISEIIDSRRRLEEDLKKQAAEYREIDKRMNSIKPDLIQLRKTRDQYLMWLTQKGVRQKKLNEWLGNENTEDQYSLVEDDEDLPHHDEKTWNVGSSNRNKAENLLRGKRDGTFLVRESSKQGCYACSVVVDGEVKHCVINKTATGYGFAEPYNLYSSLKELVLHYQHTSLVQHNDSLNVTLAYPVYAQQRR
T4 sequence (P48736 whole entry): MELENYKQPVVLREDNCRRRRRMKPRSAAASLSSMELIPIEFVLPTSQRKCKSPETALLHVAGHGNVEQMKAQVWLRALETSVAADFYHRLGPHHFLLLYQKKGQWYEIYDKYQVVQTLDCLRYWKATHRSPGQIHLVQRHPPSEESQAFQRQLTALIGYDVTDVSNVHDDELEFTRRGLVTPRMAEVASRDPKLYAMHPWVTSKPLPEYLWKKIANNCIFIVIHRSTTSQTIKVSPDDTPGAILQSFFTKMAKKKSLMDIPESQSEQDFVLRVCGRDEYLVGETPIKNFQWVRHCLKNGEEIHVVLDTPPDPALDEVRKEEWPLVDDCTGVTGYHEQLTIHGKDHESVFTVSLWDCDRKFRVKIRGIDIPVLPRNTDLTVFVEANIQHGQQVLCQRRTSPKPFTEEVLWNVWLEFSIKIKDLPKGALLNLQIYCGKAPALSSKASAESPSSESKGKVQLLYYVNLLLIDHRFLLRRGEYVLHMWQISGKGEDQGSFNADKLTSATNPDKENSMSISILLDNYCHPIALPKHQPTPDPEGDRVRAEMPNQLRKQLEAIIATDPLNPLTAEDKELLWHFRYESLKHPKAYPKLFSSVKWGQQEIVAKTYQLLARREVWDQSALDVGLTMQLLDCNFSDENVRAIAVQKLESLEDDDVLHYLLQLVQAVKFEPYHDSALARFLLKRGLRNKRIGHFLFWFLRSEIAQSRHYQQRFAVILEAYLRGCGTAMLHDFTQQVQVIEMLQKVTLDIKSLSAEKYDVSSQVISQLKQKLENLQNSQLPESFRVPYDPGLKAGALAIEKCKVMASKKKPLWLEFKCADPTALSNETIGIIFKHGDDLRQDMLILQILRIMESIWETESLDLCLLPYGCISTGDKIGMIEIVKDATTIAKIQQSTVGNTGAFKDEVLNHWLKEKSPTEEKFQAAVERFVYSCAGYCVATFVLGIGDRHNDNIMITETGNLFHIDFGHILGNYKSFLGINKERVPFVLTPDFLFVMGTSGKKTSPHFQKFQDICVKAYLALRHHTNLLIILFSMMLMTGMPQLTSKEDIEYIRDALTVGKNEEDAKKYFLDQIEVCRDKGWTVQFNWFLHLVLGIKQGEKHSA
T3 sequence (P42336 whole entry): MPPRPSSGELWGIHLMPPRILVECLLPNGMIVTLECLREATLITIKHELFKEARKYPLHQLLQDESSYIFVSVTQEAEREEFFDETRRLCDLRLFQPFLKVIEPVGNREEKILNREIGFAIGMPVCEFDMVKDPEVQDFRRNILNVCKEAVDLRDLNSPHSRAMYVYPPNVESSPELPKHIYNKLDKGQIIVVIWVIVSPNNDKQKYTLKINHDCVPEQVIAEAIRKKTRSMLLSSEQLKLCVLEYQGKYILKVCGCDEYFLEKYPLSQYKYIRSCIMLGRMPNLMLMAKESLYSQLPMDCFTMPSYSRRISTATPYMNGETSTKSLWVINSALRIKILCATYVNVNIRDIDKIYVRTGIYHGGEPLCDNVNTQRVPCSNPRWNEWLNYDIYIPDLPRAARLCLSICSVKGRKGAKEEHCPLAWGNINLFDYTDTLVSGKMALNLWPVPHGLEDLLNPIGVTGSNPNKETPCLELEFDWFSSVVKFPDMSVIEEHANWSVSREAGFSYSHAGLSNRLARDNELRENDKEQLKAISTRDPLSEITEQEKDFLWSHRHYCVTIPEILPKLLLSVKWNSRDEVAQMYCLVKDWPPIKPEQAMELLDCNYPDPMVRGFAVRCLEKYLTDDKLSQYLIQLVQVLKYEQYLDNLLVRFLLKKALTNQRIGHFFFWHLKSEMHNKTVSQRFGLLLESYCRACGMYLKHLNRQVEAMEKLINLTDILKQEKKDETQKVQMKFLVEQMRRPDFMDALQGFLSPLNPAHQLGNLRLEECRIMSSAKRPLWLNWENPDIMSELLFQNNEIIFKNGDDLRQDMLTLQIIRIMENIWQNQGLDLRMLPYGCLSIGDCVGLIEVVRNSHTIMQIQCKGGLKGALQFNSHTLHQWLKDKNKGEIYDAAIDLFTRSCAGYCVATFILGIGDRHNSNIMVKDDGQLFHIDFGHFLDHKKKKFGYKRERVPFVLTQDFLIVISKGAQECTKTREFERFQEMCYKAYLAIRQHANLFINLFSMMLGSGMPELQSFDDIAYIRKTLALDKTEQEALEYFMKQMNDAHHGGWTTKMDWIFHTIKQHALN
T3 sequence (P27986 whole entry partner): as the sequence (P27986 whole entry partner) above
T2 sequence (P42338 whole entry): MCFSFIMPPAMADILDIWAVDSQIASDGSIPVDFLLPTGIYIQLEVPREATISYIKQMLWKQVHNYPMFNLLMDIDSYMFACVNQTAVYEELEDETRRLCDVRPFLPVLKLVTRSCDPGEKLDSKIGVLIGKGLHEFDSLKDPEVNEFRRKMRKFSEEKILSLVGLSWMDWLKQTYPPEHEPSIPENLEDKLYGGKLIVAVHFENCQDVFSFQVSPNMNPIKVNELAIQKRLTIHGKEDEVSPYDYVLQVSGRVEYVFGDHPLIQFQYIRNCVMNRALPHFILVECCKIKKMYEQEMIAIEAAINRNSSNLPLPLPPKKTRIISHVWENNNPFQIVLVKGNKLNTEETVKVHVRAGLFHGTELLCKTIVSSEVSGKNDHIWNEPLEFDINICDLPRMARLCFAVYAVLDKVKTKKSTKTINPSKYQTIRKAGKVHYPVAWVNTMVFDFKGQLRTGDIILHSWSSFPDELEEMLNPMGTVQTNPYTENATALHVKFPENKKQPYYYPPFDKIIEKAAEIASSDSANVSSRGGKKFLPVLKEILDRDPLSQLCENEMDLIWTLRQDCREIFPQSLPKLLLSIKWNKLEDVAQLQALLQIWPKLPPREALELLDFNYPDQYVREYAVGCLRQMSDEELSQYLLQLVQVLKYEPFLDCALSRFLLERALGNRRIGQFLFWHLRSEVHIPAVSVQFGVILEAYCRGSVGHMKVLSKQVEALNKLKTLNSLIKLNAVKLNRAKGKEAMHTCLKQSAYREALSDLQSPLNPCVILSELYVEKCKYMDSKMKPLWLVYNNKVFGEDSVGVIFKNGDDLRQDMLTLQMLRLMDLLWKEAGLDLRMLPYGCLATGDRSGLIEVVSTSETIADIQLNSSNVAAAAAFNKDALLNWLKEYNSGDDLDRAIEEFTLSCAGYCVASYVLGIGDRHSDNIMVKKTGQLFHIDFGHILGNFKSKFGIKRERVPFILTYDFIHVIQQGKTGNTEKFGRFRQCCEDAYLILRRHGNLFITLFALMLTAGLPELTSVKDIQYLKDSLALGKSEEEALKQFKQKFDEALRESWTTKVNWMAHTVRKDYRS
T2 sequence (P27986 whole entry partner): as the sequence (P27986 whole entry partner) above

Structure (SMILES) | inhibition at 1 µM (Human PI3K delta) | inhibition at 1.1 µM (Human PI3K beta) | inhibition at 1.1 µM (Human PI3K alpha) | inhibition at 1 µM (Human PI3K gamma) | p110 delta Percent Inhibition (Human PI3K delta) | p110 beta Percent Inhibition (Human PI3K beta) | p110 alpha Percent Inhibition (Human PI3K alpha) | p110 gamma Percent Inhibition (Human PI3K gamma)
COC(c1ccc(Cl)cc1)c1cc(-c2ccnc(NC(C)=O)c2)sc1-c1nnc[nH]1 (stereo not shown) [Compound 220] | 99% | 91% | 92% | 9% |  |  |  | 
CC(=O)Nc1cc(-c2cc(C(c3ccc(Cl)cc3)N3CCC(F)(F)CC3)c(-c3nnc[nH]3)s2)ccn1 (stereo not shown) [Compound 221] | 100% | 94% | 62% | 8% |  |  |  | 
CC(=O)Nc1cc(-c2cc(C(c3ccc(Cl)cc3)N(C)C3CCNCC3)c(-c3nnc[nH]3)s2)ccn1 (stereo not shown) [Compound 222] | 102% | 98% | 68% | 9% |  |  |  | 
CC(=O)Nc1cc(-c2cc(C(c3ccc(Cl)cc3)N3CC[C@@H](CO)C3)c(-c3nc[nH]n3)s2)ccn1 (stereo partly shown) [Compound 223] | 102% | 94% | 67% | 21% |  |  |  | 
CC(=O)Nc1cc(-c2cc(C(c3ccc(Cl)cc3)N3CCN(S(C)(=O)=O)CC3)c(-c3nnc[nH]3)s2)ccn1 (stereo not shown) [Compound 224] | 103% | 92% | 70% | 15% |  |  |  | 
CC(=O)Nc1cc(-c2cc(/C(=C/CCN(C)C)c3ccc(Cl)cc3)c(-c3nnc[nH]3)s2)ccn1 [Compound 225] | 84% | 52% | 51% | 51% |  |  |  | 
CC(=O)Nc1cc(-c2cc(C(NCCO)c3ccc(Cl)cc3)c(-c3nnc[nH]3)s2)ccn1 (stereo not shown) [Compound 226] | 93% | 98% | 46% | 14% |  |  |  | 
N#Cc1c(-c2ccnnc2)sc(-c2nnc[nH]2)c1C(c1ccc(Cl)cc1)N1CCNCC1 (stereo not shown) [Compound 227] | 24% | 76% | -2% | 3% |  |  |  | 
OC(c1cc(-c2ccncc2)sc1-c1nnc[nH]1)c1cccc2ccccc12 (stereo not shown) [Compound 228] | 57% | 94% | 24% | 11% |  |  |  | 
CC(=O)Nc1cc(-c2nc(C(c3ccc(Cl)cc3)N3CCNCC3)c(-c3nnc[nH]3)s2)ccn1 (stereo not shown) [Compound 229] | 106% | 105% | 62% | 16% |  |  |  | 
CC(=O)Nc1cc(-c2cc(C(c3ccc(Cl)cc3)N3CCCC3)c(-c3nnc[nH]3)s2)ccn1 (stereo not shown) [Compound 230] | 102% | 93% | 57% | 29% |  |  |  | 
OC(c1ccc(Br)cc1)c1cc(-c2ccncc2)sc1-c1nnc[nH]1 (stereo not shown) [Compound 231] | 77% | 104% | 34% | 47% |  |  |  | 
OC(c1ccc(Cl)c(F)c1)c1cc(-c2ccncc2)sc1-c1nnc[nH]1 (stereo not shown) [Compound 232] | 67% | 105% | 38% | 26% |  |  |  | 
CC(=O)Nc1cc(-c2cc(C(NCC3CCNC3)c3ccc(Cl)cc3)c(-c3nnc[nH]3)s2)ccn1 (stereo not shown) [Compound 234] | 104% | 100% | 60% | 10% |  |  |  | 
OC(c1cc(-c2ccncc2)sc1-c1nnc[nH]1)c1cccc(F)c1F (stereo not shown) [Compound 235] | 66% | 101% | 65% | 17% |  |  |  | 
OC(c1ccc(-c2cncnc2)cc1)c1cc(-c2ccncc2)sc1-c1nnc[nH]1 (stereo not shown) [Compound 236] | 48% | 53% | 11% | 10% |  |  |  | 

Structure (SMILES) | inhibition at 1 µM (Human PI3K delta) | inhibition at 1.1 µM (Human PI3K beta) | inhibition at 1.1 µM (Human PI3K alpha) | inhibition at 1 µM (Human PI3K gamma) | p110 delta Percent Inhibition (Human PI3K delta) | p110 beta Percent Inhibition (Human PI3K beta) | p110 alpha Percent Inhibition (Human PI3K alpha) | p110 gamma Percent Inhibition (Human PI3K gamma)
CC(=O)Nc1cc(-c2nc(C(O)c3ccc(Cl)cc3)c(-c3nnc[nH]3)s2)ccn1 (stereo not shown) [Compound 238] | 96% | 88% | 72% | 11% |  |  |  | 
COc1cccc(F)c1C(O)c1cc(-c2ccncc2)sc1-c1nnc[nH]1 (stereo not shown) [Compound 239] | 41% | 68% | 30% | 27% |  |  |  | 
CC(=O)Nc1cc(-c2cc(C(NCC3CCCC3)c3ccc(Cl)cc3)c(-c3nnc[nH]3)s2)ccn1 (stereo not shown) [Compound 240] | 98% | 79% | 52% | 8% |  |  |  | 
CC(=O)Nc1cc(-c2cc(C(OC[C@@H]3CCCN3)c3ccc(Cl)cc3)c(-c3nnc[nH]3)s2)ccn1 (stereo partly shown) [Compound 242] | 112% | 104% | 81% | 36% |  |  |  | 
CCN(CC)C(c1ccc(Cl)cc1)c1cc(-c2ccnc(Cl)c2)sc1-c1nnc[nH]1 (stereo not shown) [Compound 243] | 45% | 66% | 12% | 4% |  |  |  | 
CC(=O)Nc1cc(-c2cc(C(NC(C)C)c3ccc(Cl)cc3)c(-c3nnc[nH]3)s2)ccn1 (stereo not shown) [Compound 244] | 101% | 101% | 77% | 14% |  |  |  | 
COc1ccc(C(O)c2cc(-c3ccncc3)sc2-c2nnc[nH]2)cc1OC (stereo not shown) [Compound 246] | 43% | 81% | 15% | 8% |  |  |  | 
CC(=O)Nc1cc(-c2cc(C(c3ccc(Cl)cc3)N3CC4(COC4)C3)c(-c3nnc[nH]3)s2)ccn1 (stereo not shown) [Compound 247] | 104% | 105% | 83% | 21% |  |  |  | 
CC(=O)Nc1cc(-c2cc(C(c3ccc(Cl)cc3)N3CCOCC3)c(-c3nnc[nH]3)s2)ccn1 (stereo not shown) [Compound 248] | 109% | 106% | 89% | 35% |  |  |  | 
Clc1ccc(C(c2cc(-c3ccnc(Cl)c3)sc2-c2nnc[nH]2)N2CCC2)cc1 (stereo not shown) [Compound 251] | 44% | 96% | 14% | 12% |  |  |  | 
OC(c1ccc(-c2ncccn2)cc1)c1cc(-c2ccncc2)sc1-c1nnc[nH]1 (stereo not shown) [Compound 252] | 60% | 85% | 58% | 12% |  |  |  | 
Nc1cc(-c2cc(C(c3ccc(Cl)cc3)N3CCNCC3)c(-c3nnc[nH]3)s2)ccn1 (stereo not shown) [Compound 254] | 91% | 96% | 49% | 8% |  |  |  | 
NCc1c[nH]c(-c2sc(-c3ccncc3)nc2Cc2ccc(Cl)cc2)n1 [Compound 255, (2-(4-(4-chlorobenzyl)-2-(pyridin-4-yl)thiazol-5-yl)-1H-imidazol-4-yl)methanamine] |  |  |  |  | 39% | 55% | 0% | 5%
OC(c1ccc2c(c1)OCO2)c1cc(-c2ccncc2)sc1-c1nnc[nH]1 (stereo not shown) [Compound 256] | 57% | 87% | 25% | 8% |  |  |  | 
OC(c1ccc2ncccc2c1)c1cc(-c2ccncc2)sc1-c1nnc[nH]1 (stereo not shown) [Compound 257] | 68% | 97% | 31% | 30% |  |  |  | 
